Experiments:
aorta rings = test: Vasorelaxant action in vitro (phenylephrine-contracted aorta rings); conditions: Oryctolagus cuniculus; concentration needed to reduce the phenylephrine contraction of rabbit aorta rings by 50%
Method: B-1. Vasorelaxant Action In Vitro
Rabbits are stunned by a blow to the neck and exsanguinated. The aorta is removed, freed from adhering tissue and divided into rings of a width of 1.5 mm. The rings are placed individually under an initial tension in 5 ml organ baths with Krebs-Henseleit solution which is at 37° C., is gassed with carbogen and has the following composition (in each case mM): sodium chloride 119; potassium chloride: 4.8; calcium chloride dihydrate: 1; magnesium sulfate heptahydrate: 1.4; potassium dihydrogenphosphate: 1.2; sodium bicarbonate: 25; glucose: 10. The contractile force is determined with Statham UC2 cells, amplified and digitalized using A/D transducers (DAS 1802 HC, Keithley Instruments Munich), and recorded in parallel on linear recorders. To obtain a contraction, phenylephrine is added to the bath cumulatively in increasing concentration. After several control cycles, the substance to be investigated is added in each further run in increasing dosage in each case, and the height of the contraction achieved is compared with the height of the contraction reached in the last preceding run. This is used to calculate the concentration needed to reduce the magnitude of the control value by 50% (IC50 value). The standard administration volume is 5 μl; the DMSO content in the bath solution corresponds to 0.1%.

[1] = biological target: T1, recombinant guanylate cyclase reporter cell line (Rattus norvegicus, UniProt P19686+P20595); test: Effect on a recombinant guanylate cyclase reporter cell line; assay type: cell-based
T1 construct: expressed in transfected cells; host or cells: recombinant reporter cell line
T1 sequence (P20595 1-619): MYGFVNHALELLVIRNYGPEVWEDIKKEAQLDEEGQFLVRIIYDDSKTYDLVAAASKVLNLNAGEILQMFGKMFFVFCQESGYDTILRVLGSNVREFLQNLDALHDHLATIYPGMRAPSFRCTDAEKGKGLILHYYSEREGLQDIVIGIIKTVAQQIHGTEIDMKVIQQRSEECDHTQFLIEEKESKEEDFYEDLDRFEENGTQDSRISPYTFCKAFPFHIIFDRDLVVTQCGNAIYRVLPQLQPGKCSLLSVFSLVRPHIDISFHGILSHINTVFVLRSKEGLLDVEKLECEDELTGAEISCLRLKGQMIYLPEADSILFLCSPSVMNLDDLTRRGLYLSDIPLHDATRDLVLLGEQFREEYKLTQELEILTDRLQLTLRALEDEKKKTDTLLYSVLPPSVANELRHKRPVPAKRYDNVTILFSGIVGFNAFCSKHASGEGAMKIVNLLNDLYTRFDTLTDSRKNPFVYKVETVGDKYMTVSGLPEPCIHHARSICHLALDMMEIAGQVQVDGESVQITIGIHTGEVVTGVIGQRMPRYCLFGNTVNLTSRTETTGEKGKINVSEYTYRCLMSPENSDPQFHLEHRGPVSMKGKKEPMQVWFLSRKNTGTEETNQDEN
T1 sequence (P19686 1-690): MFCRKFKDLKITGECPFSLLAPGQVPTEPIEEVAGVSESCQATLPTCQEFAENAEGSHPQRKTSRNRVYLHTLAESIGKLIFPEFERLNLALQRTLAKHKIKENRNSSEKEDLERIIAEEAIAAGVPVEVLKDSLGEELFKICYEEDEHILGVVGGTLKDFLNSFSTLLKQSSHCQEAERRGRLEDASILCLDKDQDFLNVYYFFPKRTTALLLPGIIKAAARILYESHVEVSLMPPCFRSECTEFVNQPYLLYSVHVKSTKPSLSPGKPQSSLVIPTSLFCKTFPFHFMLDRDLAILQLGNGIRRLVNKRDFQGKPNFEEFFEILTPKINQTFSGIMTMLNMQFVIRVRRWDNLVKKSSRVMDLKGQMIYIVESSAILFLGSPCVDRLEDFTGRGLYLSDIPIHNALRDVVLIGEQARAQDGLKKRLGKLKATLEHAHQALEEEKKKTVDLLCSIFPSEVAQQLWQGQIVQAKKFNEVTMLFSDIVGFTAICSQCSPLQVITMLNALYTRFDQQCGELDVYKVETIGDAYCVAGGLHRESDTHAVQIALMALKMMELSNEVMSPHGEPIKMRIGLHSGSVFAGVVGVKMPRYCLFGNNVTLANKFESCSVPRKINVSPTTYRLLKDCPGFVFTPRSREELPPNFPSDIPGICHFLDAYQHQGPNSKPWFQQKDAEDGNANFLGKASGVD
Method: B-2. Effect on a Recombinant Guanylate Cyclase Reporter Cell Line
The cellular activity of the compounds according to the invention is determined using a recombinant guanylate cyclase reporter cell line, as described in F. Wunder et al., Anal. Biochem. 339, 104-112 (2005).

IC50 (aorta rings) [nM]	MEC (minimum effective concentration) [1] [µM]	Compound
0.399	0.1	COC(=O)N(Cc1ccccc1F)c1c(N)nc(-n2nc(Cc3ccccc3F)c3ncccc32)nc1N [Example 3, Methyl {4,6-diamino-2-[3-(2-fluorobenzyl)-1H-pyrazolo[4,3-b]pyridin-1-yl]pyrimidin-5-yl}(2-fluorobenzyl)carbamate]
0.154		COC(=O)N(Cc1ccccc1)c1c(N)nc(-n2nc(Cc3ccccc3F)c3ncc(F)cc32)nc1N [Example 8, Methyl benzyl{4,6-diamino-2-[6-fluoro-3-(2-fluorobenzyl)-1H-pyrazolo[4,3-b]pyridin-1-yl]pyrimidin-5-yl}carbamate]
0.359	0.1	COC(=O)N(Cc1ccc(F)cc1)c1c(N)nc(-n2nc(Cc3ccccc3F)c3ncccc32)nc1N [Example 4, Methyl {4,6-diamino-2-[3-(2-fluorobenzyl)-1H-pyrazolo[4,3-b]pyridin-1-yl]pyrimidin-5-yl}(4-fluorobenzyl)carbamate]
0.745	0.1	CC(C)OC(=O)N(Cc1ccccc1)c1c(N)nc(-n2nc(Cc3ccccc3F)c3ncc(F)cc32)nc1N [Example 6, Isopropyl benzyl{4,6-diamino-2-[6-fluoro-3-(2-fluorobenzyl)-1H-pyrazolo[4,3-b]pyridin-1-yl]pyrimidin-5-yl}carbamate]
0.185	0.1	COC(=O)N(Cc1ccccc1)c1c(N)nc(-n2nc(Cc3ccccc3F)c3ncccc32)nc1N [Example 5, Methyl benzyl{4,6-diamino-2-[3-(2-fluorobenzyl)-1H-pyrazolo[4,3-b]pyridin-1-yl]pyrimidin-5-yl}carbamate]
0.705	0.3	COC(=O)N(Cc1ccccc1)c1cnc(-n2nc(Cc3ccccc3F)c3ncccc32)nc1N [Example 2, Methyl {4-amino-2-[3-(2-fluorobenzyl)-1H-pyrazolo[4,3-b]pyridin−1-yl]pyrimidin-5-yl}benzylcarbamate]

From patent publication US9090609B2, “Benzyl-substituted carbamates and use thereof” (BAYER INTELLECTUAL PROPERTY GMBH, priority 2010, dated 2015)
